Assay results from patent US20260193265A1, “Phyllochlorin analogues suitable for use in photodynamic therapy (PDT)” (RMW CHO Group Limited, priority 2022, published 2026).
Structures can show the parent of a compound that is named as a salt. Where two headings read alike, the source gives them in different places.

Legend:
[1] = tested on: Human ovarian cancer cell line SKOV3
[2] = tested on: Human ovarian cancer cell line SKOV3; assay: Phototoxicity in SKOV3 cells after 652 nm laser activation (AlamarBlue viability); assay type: cell-based; conditions: for range of phototoxicity IC90 values in vitro: result in words
Description: Samples were stored at 4° C. protected from light.
All data are shown as mean±SD (where appropriate).
To test for phototoxicity, cells incubated with phyllochlorin analogues (0-10 μM in DMSO) had culture media replaced after 24 hours (as above) and were then exposed to a 652 nm laser (Invion) with laser density at 50 mW/cm^2 for 5 mins (total 15 J/cm^2). Following activation, cells were cultured for a further 24 hours. Media was then replaced with fresh media containing AlamarBlue, and % viable cells remaining assessed as above. Controls included cells treated with phyllochlorin analogues but not activated by laser light; cells without phyllochlorin analogue treatment but with laser light; and untreated controls. All measurements were made in quadruplicate.

[3] = tested on: Human ovarian cancer cell line SKOV3; assay: Inherent cytotoxicity (dark toxicity) in SKOV3 cells (AlamarBlue viability); conditions: 24 hours incubation, no light, AlamarBlue 6 hours
Description: Photosensitizers (e.g. phyllochlorin analogue, chlorin e4 disodium (provided by Advanced Molecular Technologies, Scoresby) or Talaporfin sodium (purchased from Focus Bioscience cat #HY-16477-5MG)) were resuspended in 100% dimethylsulfoxide (DMSO) at a concentration of 5.5 mM. Samples were stored at 4° C. protected from light.
For in vitro experiments, photosensitizers (stock solution 5.5 mM in 100% DMSO) were diluted 1:100 in concentrated excipient solution (final 55 μM photosensitizer in 10% w/v Kollidon-12, 42.4% w/v polysorbate 80, 0.6% w/v citric acid anhydrous, 40% w/v ethanol, 1.0% DMSO). Serial dilutions were prepared in cell culture media (Dulbecco's Modified Eagle Medium/Nutrient Mixture F-12 (DMEM/F-12)) supplemented with 10% v/v Fetal Bovine Serum, 100 U/mL penicillin, 100 μg/mL streptomycin and the same excipient solution at a constant 1:55 dilution.
Human ovarian cancer cell line SKOV3 (ATCC #HTB-77) was maintained in Dulbecco's Modified Eagle Medium/Nutrient Mixture F-12 (DMEM/F-12), supplemented with 10% v/v Fetal Bovine Serum, 100 U/mL penicillin and 100 μg/mL streptomycin. Monolayer cultures were grown in a humidified incubator at 37° C. with 5% CO2. Once cells had reached ~80% confluence, spent media was replaced with media containing photosensitizer at the required concentration and cells were incubated for the desired period of time to allow photosensitizer uptake.
All data were analysed using GraphPad PRISM v8.3.1 (549) (GraphPad Software, CA). Spectral absorbance and viability measurements were normalized in the range 0-100%, with a minimum of 0 and a maximum value determined from the dataset. Dose response was determined using a sigmoidal four-point non-linear regression with variable slope, and IC10 or IC90 calculated for each compound. All data are shown as mean±SD (where appropriate).
SKOV3 cells were seeded in 96-well black wall plates (Greiner #655090) at a cell density of 5000 cells in 100 μl culture medium per well. On reaching ~60% confluence, media was aspirated and replaced with fresh media containing the relevant phyllochlorin analogue from 0-100 μM in DMSO. Cells were incubated for a further 24 hours, allowing uptake of phyllochlorin analogues.
To test for inherent cytotoxicity (i.e. “dark toxicity”) of the phyllochlorin analogues, the culture media was replaced after 24 hours with fresh media containing 10% (v/v) AlamarBlue Cell Viability Reagent (ThermoFisher) and cells incubated at 37° C. for 6 hours. Untreated cells were used as a control. Fluorescence (Ex 555 nm/Em 596 nm) was measured using a Cytation 3 Cell Imaging Multi-Mode Reader (Biotek), and cytotoxicity assessed according to the % viable cells remaining. All measurements were made in quadruplicate.
The phototoxicity and inherent cytotoxicity (i.e. “dark toxicity”) of several phyllochlorin analogues were assessed as previously using SKOV3 ovarian cancer cells. For comparative purposes, phyllochlorin analogues were compared against chlorin e4 disodium and Talaporfin sodium, a clinically approved photosensitizer used in the photodynamic treatment of lung cancers. Phototoxicity IC90 values and dark toxicity IC10 values were calculated using a log[inhibitor]-vs normalized response dose curve with variable slope, using the formula Y=100/(1+(IC90/X)^HillSlope (phototoxicity IC90)) or Y=100/(1+(IC10/X)^HillSlope (dark toxicity IC10)).

[4] = Homo sapiens, SK-OV-3, light or radiation study, 24 hours uptake, 652 nm laser 50 mW/cm^2 for 5 mins (total 15 J/cm^2), viability 24 hours after activation, read-out: Phototoxicity μM (IC90)
[5] = Homo sapiens, SK-OV-3, light or radiation study, 652 nm laser, read-out: apparent phototoxicity IC90

Row | Compound | Dark toxicity μM (IC10) ([1]; human, 24 h) [µM] | IC90 [2, 4] [µM] | range of phototoxicity IC90 values in vitro [2] | Dark toxicity μM (IC10) [3] [µM] | IC90 [2, 5] [µM] | Dark toxicity μM (IC10) [1] [µM] | IC90 ([2]; 24 hours uptake, 652 nm laser 50 mW/cm^2 for 5 mins (total 15 J/cm^2), viability 24 hours after activation, read-out: Phototoxicity μM (IC90)) [µM]
1 | C=Cc1c(C)c2cc3nc(c(C)c4cc(C)c(cc5nc(cc1[nH]2)C(C)=C5CC)[nH]4)[C@@H](CCCOC(C)=O)[C@@H]3C [Compound 2, 3-((7S,8S)-18-ethyl-2,5,8,12,17-pentamethyl-13-vinyl-7H,8H-porphyrin-7-yl)propyl acetate] | 66.93 | 0.48 | – | – | – | – | –
2 | C=Cc1c(C)c2cc3nc(c(CC(=O)N[C@@H](CC(=O)O)C(=O)O)c4[nH]c(cc5nc(cc1[nH]2)C(C)=C5CC)c(C)c4C(=O)O)[C@@H](CCC(=O)O)[C@@H]3C [Talaporfin sodium, reference compound] | 11.10 | – | μM range | – | – | – | –
3 | C=Cc1c(C)c2cc3nc(c(C)c4cc(C)c(cc5nc(cc1[nH]2)C(C)=C5CC)[nH]4)[C@@H](CCC[P+](c1ccccc1)(c1ccccc1)c1ccccc1)[C@@H]3C [Compound 10, phyllochlorin 3-triphenylphosphoniumpropyl iodide] | – | 0.003 | – | 4.52 | – | – | –
4 | C=Cc1c(C)c2cc3nc(c(C)c4cc(C)c(cc5nc(cc1[nH]2)C(C)=C5CC)[nH]4)[C@@H](CCCSCCCS[C@@H]1O[C@H](CO)[C@@H](O)[C@H](O)[C@H]1O)[C@@H]3C [Compound 4, (2S,3R,4S,5S,6R)-2-((3-((3-((7S,8S)-18-ethyl-2,5,8,12,17-pentamethyl-13-vinyl-7H,8H-porphyrin-7-yl)propyl)thio)propyl)thio)-6-(hydroxymethyl)tetrahydro-2H-pyran-3,4,5-triol] | 23.13 | 0.07 | – | – | < 0.1 | – | –
5 | C=Cc1c(C)c2cc3nc(c(C)c4[nH]c(cc5nc(cc1[nH]2)C(C)=C5CC)c(C)c4C(=O)O)[C@@H](CCC(=O)O)[C@@H]3C [Chlorin e4 disodium, reference compound] | – | – | μM range | – | – | 40.23 | 21.3
6 | C=Cc1c(C)c2cc3nc(c(C)c4cc(C)c(cc5nc(cc1[nH]2)C(C)=C5CC)[nH]4)[C@@H](CCCN)[C@@H]3C [Compound 7, phyllochlorin 3-aminopropyl] | 11.55 | 0.05 | – | – | < 0.1 | – | –
7 | C=Cc1c(C)c2cc3nc(c(C)c4cc(C)c(cc5nc(cc1[nH]2)C(C)=C5CC)[nH]4)[C@@H](CCCO)[C@@H]3C [Compound 1, 3-((7S,8S)-18-ethyl-2,5,8,12,17-pentamethyl-13-vinyl-7H,8H-porphyrin-7-yl)propan-1-ol] | 46.10 | 0.12 | – | – | – | – | –
8 | C=Cc1c(C)c2cc3nc(c(C)c4cc(C)c(cc5nc(cc1[nH]2)C(C)=C5CC)[nH]4)[C@@H](CCCNC(=O)[C@@H](N)C(C)C)[C@@H]3C [Compound 8, phyllochlorin 3-aminopropyl-valine amide hydrochloride] | 11.89 | 0.09 | – | – | < 0.1 | – | –
9 | C=Cc1c(C)c2cc3nc(c(C)c4cc(C)c(cc5nc(cc1[nH]2)C(C)=C5CC)[nH]4)[C@@H](CCCS[C@@H]1O[C@H](CO)[C@@H](O)[C@H](O)[C@H]1O)[C@@H]3C [Compound 5] | 13.18 | 0.05 | – | – | < 0.1 | – | –
10 | C=Cc1c(C)c2cc3nc(c(C)c4cc(C)c(cc5nc(cc1[nH]2)C(C)=C5CC)[nH]4)[C@@H](CCC[n+]1ccccc1)[C@@H]3C [Compound 9, phyllochlorin 3-pyridiniumpropyl iodide] | – | 0.006 | – | 4.91 | – | – | –
